From patent US20250353891A1 (MEDIMMUNE LIMITED, priority 2022, published 2025)
pEC50: −log10 of the molar value. Starred links: 1 amine or outer side, 2 acyl side, 3 side chain; linkers in the order of their positions; H or OH if unused. Non-standard residues stand in square brackets, D forms with d. Residues, ends and D or L forms follow the SMILES beside them. Groups on a side chain read outwards from the residue. *: point of attachment. C20 diacid = O=C(O)CCCCCCCCCCCCCCCCCCC(=O)*; C18 diacid = O=C(O)CCCCCCCCCCCCCCCCC(=O)*; γGlu = O=C(O)[C@H](CCC(=O)[*:2])N[*:1]; αMeF = C[C@](N)(Cc1ccccc1)C(=O)O; AEEA = NCCOCCOCC(=O)O; Aib = CC(C)(N)C(=O)O

What was measured:
[1] = molecular target: human GLP-1 receptor (hGLP-1R) (Homo sapiens, UniProt P43220); experiment: cAMP production (HTRF) in CHO cells expressing hGLP-1R; format: cell-based; design: expressed in transfected cells; details: for pEC50: Table 7, peptides modified at position 20, cAMP in CHO hGLP-1R cells, geometric mean, read-out: hGLP-1R EC50; for % Relative Potency Ratio: Table 7, % GLP-1R activity relative to GLP-1 / % GlucR activity relative to glucagon
Chain of human GLP-1 receptor (hGLP-1R) (P43220 24-463): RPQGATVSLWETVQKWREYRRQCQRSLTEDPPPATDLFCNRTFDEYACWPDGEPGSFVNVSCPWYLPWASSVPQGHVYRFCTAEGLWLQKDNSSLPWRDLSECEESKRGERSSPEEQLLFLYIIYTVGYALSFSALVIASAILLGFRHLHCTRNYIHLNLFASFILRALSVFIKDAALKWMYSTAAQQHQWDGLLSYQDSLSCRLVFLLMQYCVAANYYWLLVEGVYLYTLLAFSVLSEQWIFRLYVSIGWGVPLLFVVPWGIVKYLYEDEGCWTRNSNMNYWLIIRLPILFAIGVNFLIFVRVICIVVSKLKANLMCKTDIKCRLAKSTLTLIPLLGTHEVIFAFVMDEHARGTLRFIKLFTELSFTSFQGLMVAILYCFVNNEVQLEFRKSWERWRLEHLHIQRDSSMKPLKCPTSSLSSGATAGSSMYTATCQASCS
Summary of the method: (§1)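 Cells were resuspended in assay buffer at batch-optimized density, typically 1×10^5 cells/mL for hGLP-1R and 2×10^5 cells/mL for hGCGR. After 30 min incubation at room temperature with compound, cAMP was measured by two-step HTRF. EC50 values came from 4-parameter logistic fits of % Delta F.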

[2] = molecular target: human glucagon receptor (hGCGR) (Homo sapiens, UniProt P47871); experiment: cAMP production (HTRF) in CHO cells expressing hGCGR; format: cell-based; design: expressed in transfected cells; details: Table 7, peptides modified at position 20; cAMP in CHO hGCGR cells; geometric mean; read-out: hGluc-R EC50
Chain of human glucagon receptor (hGCGR) (P47871 26-477): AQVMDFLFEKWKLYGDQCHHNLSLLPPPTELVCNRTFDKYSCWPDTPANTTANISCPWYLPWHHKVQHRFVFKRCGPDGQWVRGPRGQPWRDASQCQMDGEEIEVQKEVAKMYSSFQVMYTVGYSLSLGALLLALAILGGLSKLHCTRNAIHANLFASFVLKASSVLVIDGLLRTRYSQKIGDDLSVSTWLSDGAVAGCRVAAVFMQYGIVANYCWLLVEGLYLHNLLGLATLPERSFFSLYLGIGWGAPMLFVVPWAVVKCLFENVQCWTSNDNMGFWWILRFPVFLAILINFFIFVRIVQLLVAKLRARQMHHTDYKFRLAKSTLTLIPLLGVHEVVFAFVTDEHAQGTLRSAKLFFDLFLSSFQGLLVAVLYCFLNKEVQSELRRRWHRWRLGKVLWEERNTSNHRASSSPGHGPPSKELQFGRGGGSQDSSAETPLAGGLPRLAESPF
Summary of the method: as §1

SMILES | pEC50 [1] | % Relative Potency Ratio [1] | pEC50 [2]
CC[C@H](C)[C@H](NC(=O)[C@H](Cc1c[nH]c2ccccc12)NC(=O)[C@H](CCC(N)=O)NC(=O)[C@@H](NC(=O)[C@H](Cc1ccccc1)NC(=O)[C@H](CC(=O)O)NC(=O)[C@H](CCCCNC(=O)COCCOCCNC(=O)COCCOCCNC(=O)CC[C@H](NC(=O)CCCCCCCCCCCCCCCCC(=O)O)C(=O)O)NC(=O)[C@H](C)NC(=O)C(C)(C)NC(=O)[C@H](CCCNC(=N)N)NC(=O)[C@H](CO)NC(=O)[C@H](CC(=O)O)NC(=O)[C@H](CC(C)C)NC(=O)[C@](C)(Cc1ccccc1)NC(=O)[C@H](CCCCN)NC(=O)[C@H](CO)NC(=O)[C@@H](NC(=O)[C@H](CC(=O)O)NC(=O)[C@H](CO)NC(=O)[C@@H](NC(=O)[C@](C)(Cc1ccccc1)NC(=O)[C@H](CO)NC(=O)CNC(=O)[C@H](Cc1c[nH]cn1)NC(=O)C(C)(C)NC(=O)[C@@H](N)Cc1c[nH]cn1)[C@@H](C)O)C(C)C)C(C)C)C(=O)N[C@@H](C)C(=O)N[C@@H](CC(N)=O)C(=O)N[C@H](C(N)=O)[C@@H](C)O [Peptide 206] (H-H[Aib]HGS[αMeF]TSDVSK[αMeF]LDSR[Aib]AK([AEEA-AEEA-γGlu-C18 diacid])DFVQWIANT-NH2) | 10.15 | 0.5 | 10.74
CC[C@H](C)[C@H](NC(=O)C(C)(C)NC(=O)[C@H](CCC(N)=O)NC(=O)[C@@H](NC(=O)[C@H](Cc1ccccc1)NC(=O)[C@H](CC(=O)O)NC(=O)[C@H](CCCCNC(=O)COCCOCCNC(=O)COCCOCCNC(=O)CC[C@H](NC(=O)CCCCCCCCCCCCCCCCC(=O)O)C(=O)O)NC(=O)[C@H](C)NC(=O)[C@H](C)NC(=O)[C@H](CCC(N)=O)NC(=O)[C@H](CO)NC(=O)[C@H](CC(=O)O)NC(=O)[C@H](CC(C)C)NC(=O)[C@](C)(Cc1ccccc1)NC(=O)[C@H](CCCCN)NC(=O)[C@H](CO)NC(=O)[C@@H](NC(=O)[C@H](CC(=O)O)NC(=O)[C@H](CO)NC(=O)[C@@H](NC(=O)[C@](C)(Cc1ccccc1)NC(=O)[C@H](CO)NC(=O)CNC(=O)[C@H](Cc1c[nH]cn1)NC(=O)C(C)(C)NC(=O)[C@@H](N)Cc1c[nH]cn1)[C@@H](C)O)C(C)C)C(C)C)C(=O)N[C@@H](C)C(=O)N[C@@H](CC(N)=O)C(=O)N[C@H](C(N)=O)[C@@H](C)O [Peptide 207] (H-H[Aib]HGS[αMeF]TSDVSK[αMeF]LDSQAAK([AEEA-AEEA-γGlu-C18 diacid])DFVQ[Aib]IANT-NH2) | 9.75 | 1.1 | 10.02
CC[C@H](C)[C@H](NC(=O)[C@H](Cc1c[nH]c2ccccc12)NC(=O)[C@H](CCC(N)=O)NC(=O)[C@@H](NC(=O)[C@H](Cc1ccccc1)NC(=O)[C@H](CC(=O)O)NC(=O)[C@H](CCCCNC(=O)CC[C@H](NC(=O)CCCCCCCCCCCCCCCCC(=O)O)C(=O)O)NC(=O)[C@H](C)NC(=O)[C@H](C)NC(=O)[C@H](CCCNC(=N)N)NC(=O)[C@H](CO)NC(=O)[C@H](CC(=O)O)NC(=O)[C@H](CC(C)C)NC(=O)[C@](C)(Cc1ccccc1)NC(=O)[C@H](CCCCN)NC(=O)[C@H](CO)NC(=O)[C@@H](NC(=O)[C@H](CC(=O)O)NC(=O)[C@H](CO)NC(=O)[C@@H](NC(=O)[C@H](Cc1ccccc1)NC(=O)[C@@H](NC(=O)CNC(=O)[C@H](CCC(N)=O)NC(=O)C(C)(C)NC(=O)[C@@H](N)Cc1c[nH]cn1)[C@@H](C)O)[C@@H](C)O)C(C)C)C(C)C)C(=O)N[C@@H](C)C(=O)N[C@@H](CC(N)=O)C(=O)N[C@H](C(N)=O)[C@@H](C)O [Peptide 208] | 10.19 | 20.2 | 9.18
CC[C@H](C)[C@H](NC(=O)[C@H](Cc1c[nH]c2ccccc12)NC(=O)[C@H](CCC(=O)O)NC(=O)[C@@H](NC(=O)[C@H](Cc1ccccc1)NC(=O)[C@H](CC(=O)O)NC(=O)[C@H](CCCCNC(=O)COCCOCCNC(=O)COCCOCCNC(=O)CC[C@H](NC(=O)CCCCCCCCCCCCCCCCC(=O)O)C(=O)O)NC(=O)[C@H](C)NC(=O)[C@H](C)NC(=O)[C@H](CCC(N)=O)NC(=O)[C@H](CO)NC(=O)[C@H](CC(=O)O)NC(=O)[C@H](CC(C)C)NC(=O)[C@](C)(Cc1ccccc1)NC(=O)[C@H](CCCCN)NC(=O)[C@H](CO)NC(=O)[C@@H](NC(=O)[C@H](CC(=O)O)NC(=O)[C@H](CO)NC(=O)[C@@H](NC(=O)[C@](C)(Cc1ccccc1)NC(=O)[C@H](CO)NC(=O)CNC(=O)[C@H](Cc1c[nH]cn1)NC(=O)C(C)(C)NC(=O)[C@@H](N)Cc1c[nH]cn1)[C@@H](C)O)C(C)C)C(C)C)C(=O)N[C@@H](C)C(=O)N[C@@H](CC(N)=O)C(=O)N[C@H](C(N)=O)[C@@H](C)O [Peptide 209] (H-H[Aib]HGS[αMeF]TSDVSK[αMeF]LDSQAAK([AEEA-AEEA-γGlu-C18 diacid])DFVEWIANT-NH2) | 9.90 | 0.7 | 10.37
CC[C@H](C)[C@H](NC(=O)[C@H](Cc1c[nH]c2ccccc12)NC(=O)[C@H](CCC(=O)O)NC(=O)[C@@H](NC(=O)[C@H](Cc1ccccc1)NC(=O)[C@H](CC(=O)O)NC(=O)[C@H](CCCCNC(=O)COCCOCCNC(=O)COCCOCCNC(=O)CC[C@H](NC(=O)CC[C@H](NC(=O)CCCCCCCCCCCCCCCCC(=O)O)C(=O)O)C(=O)O)NC(=O)[C@H](C)NC(=O)[C@H](C)NC(=O)[C@H](CCC(N)=O)NC(=O)[C@H](CO)NC(=O)[C@H](CC(=O)O)NC(=O)[C@H](CC(C)C)NC(=O)[C@](C)(Cc1ccccc1)NC(=O)[C@H](CCCCN)NC(=O)[C@H](CO)NC(=O)[C@@H](NC(=O)[C@H](CC(=O)O)NC(=O)[C@H](CO)NC(=O)[C@@H](NC(=O)[C@](C)(Cc1ccccc1)NC(=O)[C@H](CO)NC(=O)CNC(=O)[C@H](Cc1c[nH]cn1)NC(=O)C(C)(C)NC(=O)[C@@H](N)Cc1c[nH]cn1)[C@@H](C)O)C(C)C)C(C)C)C(=O)N[C@@H](C)C(=O)N[C@@H](CC(N)=O)C(=O)N[C@H](C(N)=O)[C@@H](C)O [Peptide 210] (H-H[Aib]HGS[αMeF]TSDVSK[αMeF]LDSQAAK([AEEA-AEEA-γGlu-γGlu-C18 diacid])DFVEWIANT-NH2) | 9.81 | 1.2 | 10.03

The remaining lines, values ahead:

pEC50 [1] | % Relative Potency Ratio [1] | pEC50 [2] | SMILES
9.78 | 0.7 | 10.22 | CC[C@H](C)[C@H](NC(=O)[C@H](Cc1c[nH]c2ccccc12)NC(=O)[C@H](CCC(N)=O)NC(=O)[C@@H](NC(=O)[C@H](Cc1ccccc1)NC(=O)[C@H](CC(=O)O)NC(=O)[C@H](CCCCNC(=O)COCCOCCNC(=O)COCCOCCNC(=O)CC[C@H](NC(=O)CC[C@H](NC(=O)CCCCCCCCCCCCCCCCCCC(=O)O)C(=O)O)C(=O)O)NC(=O)[C@H](C)NC(=O)[C@H](C)NC(=O)[C@H](CCCNC(=N)N)NC(=O)[C@H](CO)NC(=O)[C@H](CC(=O)O)NC(=O)[C@H](CC(C)C)NC(=O)[C@](C)(Cc1ccccc1)NC(=O)[C@H](CCCCN)NC(=O)[C@H](CO)NC(=O)[C@@H](NC(=O)[C@H](CC(=O)O)NC(=O)[C@H](CO)NC(=O)[C@@H](NC(=O)[C@](C)(Cc1ccccc1)NC(=O)[C@H](CO)NC(=O)CNC(=O)[C@H](Cc1c[nH]cn1)NC(=O)C(C)(C)NC(=O)[C@@H](N)Cc1c[nH]cn1)[C@@H](C)O)C(C)C)C(C)C)C(=O)N[C@@H](C)C(=O)N[C@@H](CC(N)=O)C(=O)N[C@H](C(N)=O)[C@@H](C)O [Peptide 211] (H-H[Aib]HGS[αMeF]TSDVSK[αMeF]LDSRAAK([AEEA-AEEA-γGlu-γGlu-C20 diacid])DFVQWIANT-NH2)
9.27 | 0.4 | 10.01 | CC[C@H](C)[C@H](NC(=O)[C@H](Cc1c[nH]c2ccccc12)NC(=O)[C@H](CCC(=O)O)NC(=O)[C@@H](NC(=O)[C@H](Cc1ccccc1)NC(=O)[C@H](CC(=O)O)NC(=O)[C@H](CCCCNC(=O)COCCOCCNC(=O)COCCOCCNC(=O)CC[C@H](NC(=O)CCCCCCCCCCCCCCCCCCC(=O)O)C(=O)O)NC(=O)[C@H](C)NC(=O)[C@H](C)NC(=O)[C@H](CCCNC(=N)N)NC(=O)[C@H](CO)NC(=O)[C@H](CC(=O)O)NC(=O)[C@H](CC(C)C)NC(=O)[C@](C)(Cc1ccccc1)NC(=O)[C@H](CCCCN)NC(=O)[C@H](CO)NC(=O)[C@@H](NC(=O)[C@H](CC(=O)O)NC(=O)[C@H](CO)NC(=O)[C@@H](NC(=O)[C@](C)(Cc1ccccc1)NC(=O)[C@H](CO)NC(=O)CNC(=O)[C@H](Cc1c[nH]cn1)NC(=O)C(C)(C)NC(=O)[C@@H](N)Cc1c[nH]cn1)[C@@H](C)O)C(C)C)C(C)C)C(=O)N[C@@H](C)C(=O)N[C@@H](CC(N)=O)C(=O)N[C@H](C(N)=O)[C@@H](C)O [Peptide 212] (H-H[Aib]HGS[αMeF]TSDVSK[αMeF]LDSRAAK([AEEA-AEEA-γGlu-C20 diacid])DFVEWIANT-NH2)
9.27 | 0.5 | 9.85 | CC[C@H](C)[C@H](NC(=O)[C@H](Cc1c[nH]c2ccccc12)NC(=O)[C@H](CCC(=O)O)NC(=O)[C@@H](NC(=O)[C@H](Cc1ccccc1)NC(=O)[C@H](CC(=O)O)NC(=O)[C@H](CCCCNC(=O)COCCOCCNC(=O)COCCOCCNC(=O)CC[C@H](NC(=O)CC[C@H](NC(=O)CCCCCCCCCCCCCCCCCCC(=O)O)C(=O)O)C(=O)O)NC(=O)[C@H](C)NC(=O)[C@H](C)NC(=O)[C@H](CCCNC(=N)N)NC(=O)[C@H](CO)NC(=O)[C@H](CC(=O)O)NC(=O)[C@H](CC(C)C)NC(=O)[C@](C)(Cc1ccccc1)NC(=O)[C@H](CCCCN)NC(=O)[C@H](CO)NC(=O)[C@@H](NC(=O)[C@H](CC(=O)O)NC(=O)[C@H](CO)NC(=O)[C@@H](NC(=O)[C@](C)(Cc1ccccc1)NC(=O)[C@H](CO)NC(=O)CNC(=O)[C@H](Cc1c[nH]cn1)NC(=O)C(C)(C)NC(=O)[C@@H](N)Cc1c[nH]cn1)[C@@H](C)O)C(C)C)C(C)C)C(=O)N[C@@H](C)C(=O)N[C@@H](CC(N)=O)C(=O)N[C@H](C(N)=O)[C@@H](C)O [Peptide 213] (H-H[Aib]HGS[αMeF]TSDVSK[αMeF]LDSRAAK([AEEA-AEEA-γGlu-γGlu-C20 diacid])DFVEWIANT-NH2; N-terminus assumed)
